PubChem BioAssay AID1963971 (Molecular Pharmacology Branch, DTP, NCI, 2024)

Tested on: 953936-095-R-J2-PDC spheroids with HUVEC/MSC, viability
Assay: Anticancer human tumor 953936-095-R-J2-PDC patient-derived cervical squamous cell carcinoma cell line growth inhibition [PI3K]
Settings: for IC50: curve of first compound; for viability, T/C: stronger effect = lower value; active = viability on the fitted dose curve at most 10% of control; inactive = the rest
In short: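 High-throughput combination screen: PI3K inhibitors crossed with targeted small molecules on complex spheroids of tumor cells, HUVEC and MSCs at 37 degrees C, 5% CO2. Top concentration was at or near clinical Cmax (otherwise 10 microM), with half-log decrements.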

[1] = second compound 0.0316 µM, first compound 0.0316 µM
[2] = second compound 0.0316 µM, first compound 0.1 µM
[3] = second compound 0.1 µM, first compound 0.0316 µM
[4] = second compound 0.1 µM, first compound 0.1 µM
[5] = second compound 0.316 µM, first compound 0.0316 µM
[6] = second compound 0.316 µM, first compound 0.1 µM
[7] = second compound 1 µM, first compound 0.0316 µM
[8] = second compound 1 µM, first compound 0.1 µM
[9] = second compound 3.16 µM, first compound 0.0316 µM
[10] = second compound 3.16 µM, first compound 0.1 µM
[11] = second compound 10 µM, first compound 0.0316 µM
[12] = second compound 10 µM, first compound 0.1 µM
[13] = second compound 0.0316 µM, first compound 0.316 µM
[14] = second compound 0.0316 µM, first compound 1 µM
[15] = second compound 0.0316 µM, first compound 3.16 µM
[16] = second compound 0.0316 µM, first compound 10 µM
[17] = second compound 0.1 µM, first compound 0.316 µM
[18] = second compound 0.1 µM, first compound 1 µM
[19] = second compound 0.1 µM, first compound 3.16 µM
[20] = second compound 0.1 µM, first compound 10 µM
[21] = second compound 0.316 µM, first compound 0.316 µM
[22] = second compound 0.316 µM, first compound 1 µM
[23] = second compound 0.316 µM, first compound 3.16 µM
[24] = second compound 0.316 µM, first compound 10 µM
[25] = second compound 1 µM, first compound 0.316 µM
[26] = second compound 1 µM, first compound 1 µM
[27] = second compound 1 µM, first compound 3.16 µM
[28] = second compound 1 µM, first compound 10 µM
[29] = second compound 3.16 µM, first compound 0.316 µM
[30] = second compound 3.16 µM, first compound 1 µM
[31] = second compound 3.16 µM, first compound 3.16 µM
[32] = second compound 3.16 µM, first compound 10 µM
[33] = second compound 10 µM, first compound 0.316 µM
[34] = second compound 10 µM, first compound 1 µM
[35] = second compound 10 µM, first compound 3.16 µM
[36] = second compound 10 µM, first compound 10 µM
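Note: spheroids exposed to compounds for seven days before read-out.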

CC(=O)c1c(C)c2cnc(Nc3ccc(N4CCNCC4)cn3)nc2n(C2CCCC2)c1=O + CC(Nc1ncnc2nc[nH]c12)c1cc2cccc(Cl)c2c(=O)n1-c1ccccc1
> 0.1 µM: IC50 (second compound 0.0316 µM) | IC50 (second compound 0.1 µM) | IC50 (second compound 0.316 µM) | IC50 (second compound 1 µM) | IC50 (second compound 3.16 µM) | IC50 (second compound 10 µM)
inactive: viability, T/C (second compound 0.0316 µM, first compound 0.000316 µM) 91.6% | viability, T/C (second compound 0.0316 µM, first compound 0.001 µM) 99.4% | viability, T/C (second compound 0.0316 µM, first compound 0.00316 µM) 105% | viability, T/C (second compound 0.0316 µM, first compound 0.01 µM) 93.9% | viability, T/C [1] 113% | viability, T/C [2] 99.4% | viability, T/C (second compound 0.1 µM, first compound 0.000316 µM) 93% | viability, T/C (second compound 0.1 µM, first compound 0.001 µM) 96.4% | viability, T/C (second compound 0.1 µM, first compound 0.00316 µM) 105% | viability, T/C (second compound 0.1 µM, first compound 0.01 µM) 88.2% | viability, T/C [3] 99.8% | viability, T/C [4] 92.1% | viability, T/C (second compound 0.316 µM, first compound 0.000316 µM) 97.8% | viability, T/C (second compound 0.316 µM, first compound 0.001 µM) 92.8% | viability, T/C (second compound 0.316 µM, first compound 0.00316 µM) 90.7% | viability, T/C (second compound 0.316 µM, first compound 0.01 µM) 86.5% | viability, T/C [5] 103% | viability, T/C [6] 83% | viability, T/C (second compound 1 µM, first compound 0.000316 µM) 107% | viability, T/C (second compound 1 µM, first compound 0.001 µM) 98.4% | viability, T/C (second compound 1 µM, first compound 0.00316 µM) 85.6% | viability, T/C (second compound 1 µM, first compound 0.01 µM) 94% | viability, T/C [7] 81.5% | viability, T/C [8] 80.2% | viability, T/C (second compound 3.16 µM, first compound 0.000316 µM) 81.4% | viability, T/C (second compound 3.16 µM, first compound 0.001 µM) 74.4% | viability, T/C (second compound 3.16 µM, first compound 0.00316 µM) 78.2% | viability, T/C (second compound 3.16 µM, first compound 0.01 µM) 83.5% | viability, T/C [9] 74.8% | viability, T/C [10] 70.7% | viability, T/C (second compound 10 µM, first compound 0.000316 µM) 59.9% | viability, T/C (second compound 10 µM, first compound 0.001 µM) 68.6% | viability, T/C (second compound 10 µM, first compound 0.00316 µM) 55.5% | viability, T/C (second compound 10 µM, first compound 0.01 µM) 69.7% | viability, T/C [11] 65.1% | viability, T/C [12] 51.3%

CCCS(=O)(=O)Nc1ccc(F)c(C(=O)c2c[nH]c3ncc(-c4ccc(Cl)cc4)cc23)c1F + CC(Nc1ncnc2nc[nH]c12)c1cc2cccc(Cl)c2c(=O)n1-c1ccccc1
inactive: viability, T/C [1] 91.3% | viability, T/C [2] 98.6% | viability, T/C [13] 108% | viability, T/C [14] 113% | viability, T/C [15] 103% | viability, T/C [3] 102% | viability, T/C [4] 101% | viability, T/C [17] 99.2% | viability, T/C [18] 104% | viability, T/C [19] 104% | viability, T/C [5] 101% | viability, T/C [6] 91.6% | viability, T/C [21] 97% | viability, T/C [22] 102% | viability, T/C [23] 97.2% | viability, T/C [7] 98.9% | viability, T/C [8] 85.1% | viability, T/C [25] 96.5% | viability, T/C [26] 98.2% | viability, T/C [27] 89.3% | viability, T/C [9] 76.1% | viability, T/C [10] 74.6% | viability, T/C [29] 78% | viability, T/C [30] 101% | viability, T/C [31] 86.9% | viability, T/C [11] 59.5% | viability, T/C [12] 63.5% | viability, T/C [33] 63% | viability, T/C [34] 70.1% | viability, T/C [35] 63.6%
5.73 µM: IC50 (second compound 0.1 µM)
4.07 µM: IC50 (second compound 10 µM)
5.74 µM: IC50 (second compound 0.0316 µM)
5.28 µM: IC50 (second compound 1 µM)
active: viability, T/C [16] 0.75% | viability, T/C [20] 1.22% | viability, T/C [24] 0.93% | viability, T/C [28] 1.11% | viability, T/C [32] 1.48% | viability, T/C [36] 1.27%
5.05 µM: IC50 (second compound 3.16 µM)
5.56 µM: IC50 (second compound 0.316 µM)

CNC(=O)c1ccc(N2C(=S)N(c3ccc(C#N)c(C(F)(F)F)c3)C(=O)C2(C)C)cc1F + CC(Nc1ncnc2nc[nH]c12)c1cc2cccc(Cl)c2c(=O)n1-c1ccccc1
> 10 µM: IC50 (second compound 0.0316 µM) | IC50 (second compound 0.1 µM) | IC50 (second compound 0.316 µM) | IC50 (second compound 1 µM) | IC50 (second compound 3.16 µM) | IC50 (second compound 10 µM)
inactive: viability, T/C [1] 97.9% | viability, T/C [2] 108% | viability, T/C [13] 100% | viability, T/C [14] 91.9% | viability, T/C [15] 103% | viability, T/C [16] 85.7% | viability, T/C [3] 94.2% | viability, T/C [4] 104% | viability, T/C [17] 108% | viability, T/C [18] 93% | viability, T/C [19] 83.2% | viability, T/C [20] 74.2% | viability, T/C [5] 111% | viability, T/C [6] 88.6% | viability, T/C [21] 92.4% | viability, T/C [22] 96.3% | viability, T/C [23] 95.2% | viability, T/C [24] 70.9% | viability, T/C [7] 94.3% | viability, T/C [8] 95.4% | viability, T/C [25] 83.8% | viability, T/C [26] 88.9% | viability, T/C [27] 84.7% | viability, T/C [28] 78% | viability, T/C [9] 76.6% | viability, T/C [10] 83.1% | viability, T/C [29] 71.8% | viability, T/C [30] 82.9% | viability, T/C [31] 82.1% | viability, T/C [32] 61.2% | viability, T/C [11] 62.6% | viability, T/C [12] 67.6% | viability, T/C [33] 66.6% | viability, T/C [34] 58.7% | viability, T/C [35] 58.5% | viability, T/C [36] 55%
